Holding throughout (type): biochemical
For assay [1], the target named is T1, MAGL (Homo sapiens, UniProt Q99685).
T1 construct: Proteomes (human prefrontal cortex or cell membrane fractions); from tissue
T1 sequence (Q99685 1-303): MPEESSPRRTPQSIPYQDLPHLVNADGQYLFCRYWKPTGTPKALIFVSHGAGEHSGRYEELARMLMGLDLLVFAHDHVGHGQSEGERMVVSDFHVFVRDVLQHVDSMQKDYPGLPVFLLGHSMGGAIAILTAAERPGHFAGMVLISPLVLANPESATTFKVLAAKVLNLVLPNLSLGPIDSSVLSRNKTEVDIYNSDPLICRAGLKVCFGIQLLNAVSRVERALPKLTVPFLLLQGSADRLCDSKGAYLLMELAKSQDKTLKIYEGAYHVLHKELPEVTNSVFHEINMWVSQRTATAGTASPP
The assay is described as follows: In vitro competitive activity-based protein profiling (human), MAGL. The settings on record: for inhibition at 1 µM: 1 μM inhibitor, human proteome, 30 min preincubation at 37° C, read-out: MAGL % inh. 1 μM (human); for IC50: human PC3. Here is the method:
(§1) In Vitro Competitive Activity-Based Protein Profiling (Human).
(§2) Proteomes (human prefrontal cortex or cell membrane fractions) (50 μL, 1.0-2.0 mg/mL total protein concentration) were preincubated with varying concentrations of inhibitors at 37° C. After 30 min, FP-Rh or JW912 (1.0 μL, 50 μM in DMSO) was added and the mixture was incubated for another 30 min at room temperature. Reactions were quenched with SDS loading buffer (15 μL-4×) and run on SDS-PAGE. Following gel imaging, serine hydrolase activity was determined by measuring fluorescent intensity of gel bands corresponding to MAGL and ABHD6 using ImageJ 1.49 k software.

Assay [2] addresses T2, ABHD6 (Mus musculus, UniProt Q8R2Y0).
T2 construct: Proteomes (mouse brain membrane fraction or cell lysates); from tissue; host or cells: mouse brain membrane fraction or cell lysates
T2 sequence (Q8R2Y0 1-336): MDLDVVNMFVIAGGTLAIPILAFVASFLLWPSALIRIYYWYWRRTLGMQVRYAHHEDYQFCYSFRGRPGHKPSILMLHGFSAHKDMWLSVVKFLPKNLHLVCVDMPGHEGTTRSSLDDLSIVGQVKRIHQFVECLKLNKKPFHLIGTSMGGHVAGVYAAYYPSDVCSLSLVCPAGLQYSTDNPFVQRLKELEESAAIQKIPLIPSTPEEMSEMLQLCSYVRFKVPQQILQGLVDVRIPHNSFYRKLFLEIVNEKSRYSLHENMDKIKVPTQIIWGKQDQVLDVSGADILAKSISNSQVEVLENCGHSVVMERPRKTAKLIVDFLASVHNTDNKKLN
The assay is described as follows: In vitro competitive activity-based protein profiling (mouse), ABHD6. The settings on record: 1 μM inhibitor, mouse brain membrane fraction or cell lysates; read-out: ABHD6 % inh. 1 μM (mouse). Here is the method: (§3) In Vitro Competitive Activity-Based Protein Profiling (Mouse).
(§4) Proteomes (mouse brain membrane fraction or cell lysates) (50 μL, 1.0 mg/mL total protein concentration) were preincubated with varying concentrations of inhibitors at 37° C. After 30 min, FP-Rh (1.0 μL, 50 μM in DMSO) was added and the mixture was incubated for another 30 min at 37° C. Reactions were quenched with SDS loading buffer (50 μL-4×) and run on SDS-PAGE. Following gel imaging, serine hydrolase activity was determined by measuring fluorescent intensity of gel bands corresponding to MAGL and ABHD6 using ImageJ 1.49 k software. Data from this assay is shown in Table 1 (% inhibition at 1 μM).

The target in assay [3] is T3, MAGL (Mus musculus, UniProt O35678).
T3 construct: Proteomes (mouse brain membrane fraction or cell lysates); from tissue; host or cells: mouse brain membrane fraction or cell lysates
T3 sequence (O35678 1-303): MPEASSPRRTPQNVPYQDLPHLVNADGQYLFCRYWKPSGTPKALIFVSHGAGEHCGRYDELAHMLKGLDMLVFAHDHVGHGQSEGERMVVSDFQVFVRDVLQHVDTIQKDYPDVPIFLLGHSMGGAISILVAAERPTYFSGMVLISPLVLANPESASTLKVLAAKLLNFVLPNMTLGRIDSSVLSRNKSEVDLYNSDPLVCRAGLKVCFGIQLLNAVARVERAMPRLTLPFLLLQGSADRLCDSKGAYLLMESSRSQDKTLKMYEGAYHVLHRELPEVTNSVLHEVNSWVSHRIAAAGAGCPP
The assay is described as follows: In vitro competitive activity-based protein profiling (mouse), MAGL. The settings on record: for inhibition at 1 µM: 1 μM inhibitor, mouse brain membrane fraction or cell lysates, read-out: MAGL % inh. 1 μM (mouse). On the procedure:
as §3, §4

Assay [4] has as its target T4, ABHD6 (Homo sapiens, UniProt Q9BV23).
T4 construct: Proteomes (human prefrontal cortex or cell membrane fractions); endogenous in cells; human prefrontal cortex
T4 sequence (Q9BV23 1-337): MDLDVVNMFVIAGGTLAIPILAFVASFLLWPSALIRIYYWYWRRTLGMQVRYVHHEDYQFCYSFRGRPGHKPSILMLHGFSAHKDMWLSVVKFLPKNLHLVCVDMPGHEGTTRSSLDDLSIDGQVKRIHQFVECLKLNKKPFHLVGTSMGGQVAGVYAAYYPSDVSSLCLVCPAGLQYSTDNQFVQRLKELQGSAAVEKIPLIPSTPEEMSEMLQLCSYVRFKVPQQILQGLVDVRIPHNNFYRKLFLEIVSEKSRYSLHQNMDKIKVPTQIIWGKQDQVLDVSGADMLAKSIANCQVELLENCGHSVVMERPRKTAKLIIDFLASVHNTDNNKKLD
The assay is described as follows: In vitro competitive activity-based protein profiling (human), ABHD6. The settings on record: human PC3. On the procedure:
as §1, §2

One may read the IC50 as the concentration at which inhibition is half-maximal. Low values mean higher potency, high ones lower potency.

With `N#Cc1ccc(CN2CCN(C(=O)OC(C(F)(F)F)C(F)(F)F)CC2)c(N2CCC(C(=O)O)CC2)c1` [Example 69, 1-(5-cyano-2-((4-(((1,1,1,3,3,3-hexafluoropropan-2-yl)oxy)carbonyl)piperazin-1-yl)methyl)phenyl)piperidine-4-carboxylic acid], the figures for the inhibition at 1 µM in assay [1], in assay [2] and in assay [3] were not below 75%, 0 to 25% and not below 75%, respectively. Also, the figures for the half-maximal inhibitory concentration (IC50) in assay [1] and in assay [4] were not above 0.1 µM and 0.1 to 1 µM, respectively.
On to `O=C(O)CNC1CCN(c2cc(C(F)(F)F)ccc2CN2CCN(C(=O)OC(C(F)(F)F)C(F)(F)F)CC2)CC1` [Example 49, (1-(2-((4-(((1,1,1,3,3,3-hexafluoropropan-2-yl)oxy)carbonyl)piperazin-1-yl)methyl)-5-(trifluoromethyl)phenyl)piperidin-4-yl)glycine], for which the inhibition at 1 µM in assay [1] is not below 75%; in assay [2], 0 to 25%; in assay [3], not below 75%. The IC50 in assay [1] is not above 0.1 µM; in assay [4] it was 1 to 10 µM.
Consider `O=C(O)C1CCN(Cc2cc(C(F)(F)F)ccc2CN2CCN(C(=O)OC(C(F)(F)F)C(F)(F)F)CC2)CC1` [Example 41, 1-(2-((4-(((1,1,1,3,3,3-hexafluoropropan-2-yl)oxy)carbonyl)piperazin-1-yl)methyl)-5-(trifluoromethyl)benzyl)piperidine-4-carboxylic acid], for which the inhibition at 1 µM is not below 75% in assay [1], 0 to 25% in assay [2] and not below 75% in assay [3]. Also, the IC50 in assay [1] was 0.1 to 1 µM; in assay [4] it was 1 to 10 µM.
Regarding `O=C(O)[C@H]1CCCN(c2cc(CN3CCN(C(=O)OC(C(F)(F)F)C(F)(F)F)CC3)cc(C(F)(F)F)c2)C1` [Example 81, (S)-1-(3-((4-(((1,1,1,3,3,3-hexafluoropropan-2-yl)oxy)carbonyl)piperazin-1-yl)methyl)-5-(trifluoromethyl)phenyl)piperidine-3-carboxylic acid], the inhibition at 1 µM in assay [1], in assay [2] and in assay [3] was not below 75% throughout. The values for the IC50 in assay [1] and in assay [4] were not above 0.1 µM and 0.1 to 1 µM, respectively.
`O=C(O)C1COCCN1c1cc(CN2CCN(C(=O)OC(C(F)(F)F)C(F)(F)F)CC2)cc(C(F)(F)F)c1` (stereo not shown) [Example 68, 4-(3-((4-(((1,1,1,3,3,3-hexafluoropropan-2-yl)oxy)carbonyl)piperazin-1-yl)methyl)-5-(trifluoromethyl)phenyl)morpholine-3-carboxylic acid]: the inhibition at 1 µM in assay [1], in assay [2] and in assay [3] was not below 75% in each case. The values for the IC50 in assay [1] and in assay [4] were not above 0.1 µM and 0.1 to 1 µM, respectively.
In the case of `CC(C)(C(=O)O)N1CC2CN(c3cc(C(F)(F)F)ccc3CN3CCN(C(=O)OC(C(F)(F)F)C(F)(F)F)CC3)CC2C1` (stereo not shown) [Example 16, 2-(5-(2-((4-(((1,1,1,3,3,3-Hexafluoropropan-2-yl)oxy)carbonyl)piperazin-1-yl)methyl)-5-(trifluoromethyl)phenyl)hexahydropyrrolo[3,4-c]pyrrol-2(1H)-yl)-2-methylpropanoic Acid], the inhibition at 1 µM in assay [1] was not below 75%; in assay [2] it was 0 to 25%; in assay [3] it was not below 75%. For the same compound, the IC50 was not above 0.1 µM in assay [1] and 1 to 10 µM in assay [4].
For the compound `O=C(OC(C(F)(F)F)C(F)(F)F)N1CCN(Cc2cc(C(F)(F)F)cc(C3(C(=O)O)CCCC3)c2)CC1` [Example 1, 1-(3-((4-(((1,1,1,3,3,3-Hexafluoropropan-2-yl)oxy)carbonyl)piperazin-1-yl)methyl)-5-(trifluoromethyl)phenyl)cyclopentane-1-carboxylic Acid], the inhibition at 1 µM in assay [1], in assay [2] and in assay [3] was not below 75% in each case. Further, the concentration for half-maximal inhibition (IC50) in assay [1] is not above 0.1 µM; in assay [4], 0.1 to 1 µM.
In the case of `O=C(O)[C@@H]1CCCN(c2cc(CN3CCN(C(=O)OC(C(F)(F)F)C(F)(F)F)CC3)cc(C(F)(F)F)c2)C1` [Example 66, (R)-1-(3-((4-(((1,1,1,3,3,3-hexafluoropropan-2-yl)oxy)carbonyl)piperazin-1-yl)methyl)-5-(trifluoromethyl)phenyl)piperidine-3-carboxylic acid], the inhibition at 1 µM in assay [1], in assay [2] and in assay [3] was not below 75% each time. In addition, the IC50 in assay [1] and in assay [4] was not above 0.1 µM throughout.
On to `Cc1ccc(CN2CCN(C(=O)OC(C(F)(F)F)C(F)(F)F)CC2)c(C2(C(=O)O)CCCC2)c1` [Example 14, 1-(2-((4-(((1,1,1,3,3,3-Hexafluoropropan-2-yl)oxy)carbonyl)piperazin-1-yl)methyl)-5-methylphenyl)cyclopentane-1-carboxylic Acid], for which the inhibition at 1 µM is not below 75% in assay [1], 0 to 25% in assay [2] and not below 75% in assay [3]. In addition, the IC50 in assay [1] is not above 0.1 µM; in assay [4], 1 to 10 µM.
`O=C(O)Cn1ccc(-c2ccccc2CN2CCN(C(=O)OC(C(F)(F)F)C(F)(F)F)CC2)n1` [Example 11, 2-(3-(2-((4-(((1,1,1,3,3,3-Hexafluoropropan-2-yl)oxy)carbonyl)piperazin-1-yl)methyl)phenyl)-1H-pyrazol-1-yl)acetic Acid]: the inhibition at 1 µM is not below 75% in assay [1], 0 to 25% in assay [2] and not below 75% in assay [3]. In addition, the IC50 in assay [1] fell in the range of 0.1 to 1 µM; in assay [4], 1 to 10 µM.
Take `O=C(O)C1CCN(c2cc(F)ccc2CN2CCN(C(=O)OC(C(F)(F)F)C(F)(F)F)CC2)CC1` [Example 73, 1-(5-fluoro-2-((4-(((1,1,1,3,3,3-hexafluoropropan-2-yl)oxy)carbonyl)piperazin-1-yl)methyl)phenyl)piperidine-4-carboxylic acid]: the inhibition at 1 µM in assay [1] was not below 75%; in assay [2], 50 to 75%; in assay [3] it was not below 75%. In addition, the IC50 in assay [1] was not above 0.1 µM; in assay [4], 1 to 10 µM.
`O=C(O)CN1CC2(CCN(c3cc(Cl)ccc3CN3CCN(C(=O)OC(C(F)(F)F)C(F)(F)F)CC3)CC2)C1` [Example 47, 2-(7-(5-chloro-2-((4-(((1,1,1,3,3,3-hexafluoropropan-2-yl)oxy)carbonyl)piperazin-1-yl)methyl)phenyl)-2,7-diazaspiro[3.5]nonan-2-yl)acetic acid]: the inhibition at 1 µM was not below 75% in assay [1], 0 to 25% in assay [2] and not below 75% in assay [3]. Further, the IC50 in assay [1] was not above 0.1 µM; in assay [3] (mouse proteome), not above 0.1 µM; in assay [4], 1 to 10 µM.

The values are drawn from US10899737B2, “Piperazine carbamates and methods of making and using same” (Lundbeck La Jolla Research Center, Inc., priority 2016, dated 2021).
